The source of these data is patent publication US7888118B2, “2-{2-[5-(3-chlorophenyl)]furanyl}-4,5-bis(4-methoxyphenyl)imidazole and methods for inducing differentiation of myoblasts or muscle fibers into neuron cells” (Industry-Academic Cooperation Foundation, Yonsei University, priority 2005, dated 2011).

Experiment [1] has as its system human single muscle fibers. In words: Differentiation of isolated human muscle fibers into neuron cells. It counts as cell-based. As for the experimental part: Single fibers of human skeletal muscle are obtained as described previously (In Vitro Cell Dev Biol Anim. 2002, 38, 66). A sample of skeletal muscle is dissected from the abductor hallucis muscle. The sample is collected and transported in single fiber culture media (Ham's F-10 medium supplemented with 10% FBS, 2% chick embryo extract and 1.5 μg/mL amphotericin B). The muscle sample is incubated in 10 mL single fiber culture media containing 0.1% collagenase in a 50 mL Falcon™ tube for 1 h at 37° C. Bundles of muscle fibers are carefully dissected using a scalpel. The bundles are laid in a Petri dish containing 10 mL single fiber culture media with 0.1% collagenase at 37° C. for 5 h. Isolation of single muscle fibers is carried out by repeatedly triturating the muscle sample with a wide-mouthed Pasteur pipette. Isolated muscle fibers that have not undergone hypercontraction (which renders them unsuitable for plating in culture dishes) are placed in matrigel-coated 6-well plates at a density of three fibers per well. Fibers are plated in one drop of single fiber culture media and allowed to attach for 6 h and then 1 mL of media is added to the culture. After 24 h, the media are changed to single fiber culture media without amphotericin B.
After 5 days, populations of satellite muscle precursor cells migrate from the fiber and begin to proliferate. […]

The test system of a further experiment is Murine myoblasts (C2C12). In words: Neurite outgrowth / neuron differentiation of myoblasts observed by light microscope. The class given is cell-based. As for the experimental part:
Murine myoblasts (C2C12) are usually cultured in RPMI 1640 or DMEM supplemented with 10% FBS, 50 units/mL penicillin and 50 μg/mL of streptomycin at 37° C. with 5% CO2 in air atmosphere.
For the small molecule screen, the cultured C2C12 cells are seeded in a 96-well plate at a density of 10^3 cells per well in culture media. After 24 h, the culture media are replaced with differentiation media (RPMI 1640 or DMEM containing 1% FBS, 50 units/mL penicillin and 50 μg/mL of streptomycin). Test compounds are then added at a final concentration of 5-10 μM. After 96 h incubation, morphological changes of cells are observed by a light microscope (Nikon Eclipse TE2000) to detect neurite outgrowth characteristic of neuron differentiation. To ascertain neuron differentiation, the cells are washed with PBS and loaded FM1-43 (a final concentration: 2 μM, Molecular Probes) dissolved in Ringer buffer containing 100 mM KCl. […] Fluorescent intensity of the treated cells (excitation wavelength: 470 nm, emission wavelength: 540 nm) is read on a fluorescent microplate reader (SpectraMax GeminiEM, Molecular Devices).
An imidazole library of about 300 compounds is added at a final concentration of 5-10 μM. […] Fluorescent intensity (excitation wavelength: 470 nm, emission wavelength: 540 nm) is read on a fluorescent microplate reader (SpectraMax GeminiEM, Molecular Devices).

For the compound `COc1ccc(-c2nc(-c3ccc(-c4cccc(Cl)c4)o3)[nH]c2-c2ccc(OC)cc2)cc1` [Neurodazine 1, 2-{2-[5-(3-chlorophenyl)]furanyl}-4,5-bis(4-methoxyphenyl)imidazole], the “differentiation of muscle fibers into neuron cells (FIG. 3)” value in experiment [1] was “Differentiated neuron cells from muscle fibers”. Further, in the experiment on Murine myoblasts (C2C12), the “differentiation of myoblasts into neuron cells (FIG. 2)” value is recorded as “Differentiated neuron cells from myoblasts”.
